Among the data in patent US8003665B2, “Salts and polymorphs of a potent antidiabetic compound” (Amgen Inc., priority 2003, dated 2011) are weight loss and weight gain values, retold here.

This series can be described thus: Moisture sorption/desorption (hygroscopicity). Type of series: physicochemical. The method, then: Moisture sorption/desorption data were collected on a VTI SGA-100 Vapor Sorption Analyzer. Sorption and desorption data were collected over a range of 5% to 95% relative humidity (“RH”) at 10% RH intervals under nitrogen purge. Samples were not dried prior to analysis. Equilibrium criteria used for analysis were less than 0.0100% weight change in 5 minutes, with a maximum equilibration time of 3 hours if the weight criterion was not met. Data were not corrected for the initial moisture content of the samples. NaCl and PVP were used as calibration standards. This example illustrates the differential scanning calorimetry (DSC) and hygroscopicity analysis of Form I prepared according to Example 6.

The structures appear in SMILES notation.

The compound `O=S(=O)(Nc1cc(Cl)c(Oc2cnc3ccccc3c2)c(Cl)c1)c1ccc(Cl)cc1Cl.O=S(=O)(O)c1ccccc1` [Form I, 2,4-Dichloro-N-[3,5-dichloro-4-(quinolin-3-yloxy)-phenyl]-benzenesulfonamide benzenesulfonate salt] registered a weight loss (moisture desorption, from 95% to 25% relative humidity) of 0.6%. For the setting “moisture sorption, from 25% to 95% relative humidity”, this compound gave a weight gain of 0.6%.
